Assay results taken from ChEMBL document CHEMBL3808345, “Discovery of triazolopyridine GS-458967, a late sodium current inhibitor (Late INai) of the cardiac NaV 1.5 channel with improved efficacy and potency relative to ranolazine” (Bioorg Med Chem Lett, 2016).
In brackets after ≈: the same amount, converted by molar mass.

Key:
[1] = Aqueous solubility of the compound in PBS at pH 7.6; format: physicochemical
[2] = Permeability from apical to basolateral side in human Caco2 cells at 1 uM; format: ADME, cell-based; settings: Caco-2, read-out: permeability
[3] = Permeability from basolateral to apical side in human Caco2 cells at 10 uM; format: ADME, cell-based; settings: Caco-2, read-out: permeability
[4] = Permeability from apical to basolateral side in human Caco2 cells at 10 uM; format: ADME, cell-based; settings: Caco-2, read-out: permeability
[5] = Cmax in po dosed cynomolgus monkey; format: ADME, organism-based, Macaca fascicularis; design: route oral; settings: in vivo
[6] = Permeability from basolateral to apical side in human Caco2 cells at 1 uM; format: ADME, cell-based; settings: Caco-2, read-out: permeability
[7] = Stability in human liver microsomes; format: ADME
[8] = Cmax in po dosed rat; format: ADME, organism-based; design: route oral; settings: in vivo
[9] = Clearance in iv dosed cynomolgus monkey; format: ADME, organism-based, Macaca fascicularis; settings: in vivo
[10] = Aqueous solubility of the compound in HCL at pH 2.2; format: physicochemical
[11] = AUC (0 to infinity) in po dosed rat; format: ADME, organism-based; design: time infinity, route oral; settings: in vivo
[12] = AUC (0 to infinity) in po dosed cynomolgus monkey; format: ADME, organism-based, Macaca fascicularis; design: time infinity, route oral; settings: in vivo
[13] = Tmax in po dosed rat; format: ADME, organism-based; settings: in vivo
[14] = Volume of distribution at steady state in iv dosed rat; format: ADME, organism-based; settings: in vivo, read-out: Vdss
[15] = Lipophilicity, logD of the compound; format: physicochemical; settings: octanol/water
[16] = Volume of distribution at steady state in iv dosed cynomolgus monkey; format: ADME, organism-based, Macaca fascicularis; settings: in vivo, read-out: Vdss
[17] = Stability in rat liver microsomes; format: ADME
[18] = Clearance in iv dosed rat; format: ADME, organism-based; settings: in vivo
[19] = Oral bioavailability in cynomolgus monkey; format: ADME, organism-based, Macaca fascicularis; settings: in vivo
[20] = Oral bioavailability in rat; format: ADME, organism-based; settings: in vivo
[21] = Stability in dog liver microsomes; format: ADME, Canis lupus familiaris
[22] = Tmax in po dosed cynomolgus monkey; format: ADME, organism-based, Macaca fascicularis; settings: in vivo

solubility [1]: 4.7 µM (≈ 1.63 µg/mL)
Papp A→B at 1 µM [2]: 412 nm/s
Papp B→A at 10 µM [3]: 352 nm/s
Papp A→B at 10 µM [4]: 278 nm/s
Cmax [5]: 1.48 µM
Papp B→A at 1 µM [6]: 440 nm/s
half-life [7]: > 6.58 h
Cmax [8]: 0.397 µM
clearance [9]: 0.013 L/h/kg
solubility [10]: 6 µM (≈ 2.08 µg/mL)
AUC(0-inf) [11]: 5.7 µM·h
AUC(0-inf) [12]: 76.1 µM·h
Tmax [13]: 2.7 h
Vd [14]: 3.4 L
logD [15]: 3.38
Vd [16]: 0.6 L
half-life [17]: 3.82 h
clearance [18]: 0.193 L/h/kg
bioavailability [19]: 83%
bioavailability [20]: 105%
half-life [21]: 1.17 h
Tmax [22]: 6 h
Compound: FC(F)(F)Oc1ccc(-c2ccc3nnc(C(F)(F)F)n3c2)cc1
